Like-named read-outs stand apart in the source and are kept apart here. Residues, ends and D or L forms follow the SMILES beside them.
Assays:
α-glucosidase [1] = target: T1, α-glucosidase (Saccharomyces cerevisiae, UniProt P53341); experiment: α-glucosidase inhibition activity (PNPG); type: biochemical; details: synthetic peptides; enzyme 0.2 U/mL, preincubation 25 °C 10 min, PNPG 5 mmol/L, 30 min 37 °C, 405 nm; mean ± SD, three repetitions
Text: Shiitake mushrooms were acquired from a farmers’ market. Neutral protease (50 U/mg), pepsin (1:30,000), alkaline protease (200 U/mg), acid protease (50 U/mg), papain (800 U/mg), and flavor protease (20 U/mg) were purchased from Qiyi Biotechnology (Shanghai, China) Co., Ltd. α-glucosidase (10 U/mg) and 4-nitrophenyl a-D-glucopyranoside (PNPG, 99% purity) were purchased from Sigma-Aldrich (St. Louis, MO, USA). Acetonitrile (HPLC grade, 99.9% purity) was purchased from Fisher Chemical (Hampton, NH, USA). Formic acid (LC-MS grade, 99% purity) was purchased from Thermo Scientific (Waltham, MA, USA). Other reagents were of analytical grade and commercially available.
A quantity of 100 μL α-glucosidase solution (0.2 U/mL) was premixed with 50 μL sample solution in the enzyme label plate, and incubated at 25 °C for 10 min; 50 μL of PNPG (5 mmol/L) solution was added to start reactions, and incubation was continued for another 30 min at 37 °C. The reaction was terminated with 50 μL 0.67 mol/L Na2CO3 solution. The absorbance value was measured at 405 nm using an AMR-100 automatic enzyme label analyzer. The results were calculated using the following formula:Inhibitory rate (%) = ((Acontrol − Asample)/Acontrol) × 100(1)
All experiments had three repetitions. Data are expressed as mean ± standard deviation. Statistical significance (Duncan’s test, p < 0.05) was analyzed by DPS. Response surface data were analyzed using Design-ExpertV8.0.6 software.

α-glucosidase [2] = target: T1, α-glucosidase; design: method as in 7 sources, ref [4]; doi:10.1016/j.foodchem.2011.05.067; 4. Yu Z. Yin Y. Zhao W. Yu Y. Liu B. Liu J. Chen F. Novel peptides derived from egg white protein inhibiting alpha-glucosidase Food Chem. 2011 129 1376 1382 10.1016/j.foodchem.2011.05.067 ||| ref [25] = [25]; PMID 22953959; doi:10.1016/j.foodchem.2012.06.088; 25. Yu Z. Yin Y. Zhao W. Liu J. Chen F. Anti-diabetic activity peptides from albumin against alpha-glucosidase and alpha-amylase Food Chem. 2012 135 2078 2085 10.1016/j.foodchem.2012.06.088 22953959 ||| ref [10] = [10]; doi:10.1016/j.lwt.2021.113062; 10. Zhao Q. Wei G. Li K. Duan S. Ye R. Huang A. Identification and molecular docking of novel α-glucosidase inhibitory peptides from hydrolysates of Binglangjiang buffalo casein LWT 2022 156 113062 10 ||| ref [27] = [27]; PMID 36240562; doi:10.1016/j.foodchem.2022.134481; 27. Wang X. Deng Y. Xie P. Liu L. Zhang C. Cheng J. Zhang Y. Liu Y. Huang L. Jiang J. Novel bioactive peptides from ginkgo biloba seed protein and evaluation of their alpha-glucosidase inhibition acti ||| ref [43] = [43]; PMID 34920404; doi:10.1016/j.foodchem.2021.131717; 43. Chandrasekaran S. Gonzalez de Mejia E. Optimization, identification, and comparison of peptides from germinated chickpea ( Cicer arietinum ) protein hydrolysates using either papain or ficin and t ||| ...; details: cited from earlier work; for IC50 values: from germinated chickpea protein, ref [43]
[3] = from Binglangjiang buffalo casein, ref [10], read-out: IC50 values, inhibitory activity of α-glucosidase
[4] = from ginkgo biloba seed protein, ref [27], read-out: IC50 values, α-glucosidase inhibitory activity

T1 sequence (P53341 whole entry): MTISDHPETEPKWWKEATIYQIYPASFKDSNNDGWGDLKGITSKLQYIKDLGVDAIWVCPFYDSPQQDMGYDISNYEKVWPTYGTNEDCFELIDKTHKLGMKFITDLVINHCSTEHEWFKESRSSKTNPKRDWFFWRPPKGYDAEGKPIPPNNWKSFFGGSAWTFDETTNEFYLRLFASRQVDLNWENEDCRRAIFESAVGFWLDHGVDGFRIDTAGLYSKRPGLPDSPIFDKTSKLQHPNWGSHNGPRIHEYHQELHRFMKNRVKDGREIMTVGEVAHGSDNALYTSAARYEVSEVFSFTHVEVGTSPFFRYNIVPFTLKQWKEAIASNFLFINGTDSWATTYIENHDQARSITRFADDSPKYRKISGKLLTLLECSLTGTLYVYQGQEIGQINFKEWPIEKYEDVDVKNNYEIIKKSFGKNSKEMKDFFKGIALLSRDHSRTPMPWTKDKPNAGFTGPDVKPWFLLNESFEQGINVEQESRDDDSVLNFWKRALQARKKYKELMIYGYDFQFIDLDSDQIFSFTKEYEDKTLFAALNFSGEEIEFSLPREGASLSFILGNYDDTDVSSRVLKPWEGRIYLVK

For CC(C)C[C@H](NC(=O)[C@H](CCCCN)NC(=O)[C@@H]1CCCN1C(=O)[C@H](CCC(=O)O)NC(=O)CNC(=O)[C@@H](N)CCC(=O)O)C(=O)N1CCC[C@H]1C(=O)O [EGEPKLP] (H-EGEPKLP-OH), the IC50 (α-glucosidase [1]) was 499 ± 39 µM.

CC(C)C[C@H](NC(=O)[C@H](CC(=O)O)NC(=O)[C@H](CC(=O)O)NC(=O)[C@@H](N)CCCCN)C(=O)N[C@@H](CCCNC(=N)N)C(=O)N[C@@H](CO)C(=O)N1CCC[C@H]1C(=O)O [KDDLRSP] (H-KDDLRSP-OH) showed an IC50 (α-glucosidase [1]) of 550 ± 37 µM.

For CC(C)C[C@H](NC(=O)[C@H](CCCCN)NC(=O)CNC(=O)[C@H](Cc1ccc(O)cc1)NC(=O)[C@H](CC(=O)O)NC(=O)[C@@H](N)CC(C)C)C(=O)O [LDYGKL] (H-LDYGKL-OH), the IC50 (α-glucosidase [1]) was 696 ± 39 µM.

With CC(C)C[C@H](NC(=O)[C@H](CCCCN)NC(=O)[C@H](CC(C)C)NC(=O)[C@H](CCC(=O)O)NC(=O)[C@@H]1CCCN1C(=O)[C@@H](N)[C@@H](C)O)C(=O)O [TPELKL] (H-TPELKL-OH) the IC50 (α-glucosidase [1]) was 452 ± 36 µM.

In the case of “FALPQYLK [from Binglangjiang buffalo casein]”, the IC50 (α-glucosidase [2]; [3]) is given as 543 µM.

In the case of GLAR [from germinated chickpea protein], the IC50 values (α-glucosidase [2]) is listed as 8700 µg/mL.

For KLPGF, the IC50 (α-glucosidase [2]; from albumin, ref [25], read-out: IC50 of α-glucosidase inhibitory peptide) is listed as 59.5 ± 5.7 µM.

For “LSMSFPPF [identified from ginkgo biloba seed protein]”, the IC50 (α-glucosidase [2]; [4]) is given as 454 ± 32.5 µM.

For “MPGPPSD [identified from ginkgo biloba seed protein]”, the IC50 (α-glucosidase [2]; [4]) is listed as 944 ± 73.1 µM.

In the case of “RNAVPITPTLNR [from Binglangjiang buffalo casein]”, the IC50 (α-glucosidase [2]; [3]) is listed as 504 µM.

For “RVPSLM [identified from egg white protein]”, the IC50 (α-glucosidase [2]; identified from egg white protein, ref [4], read-out: IC50 value, α-glucosidase inhibitory activity) is given as 23.1 µM.

In the case of “SPGAGKG [from germinated chickpea protein]”, the IC50 values (α-glucosidase [2]) is given as 1800 µg/mL.

In the case of “TKVIPYVRYL [from Binglangjiang buffalo casein]”, the IC50 (α-glucosidase [2]; [3]) is given as 498 µM.

In the case of “VPKIPPP [identified from ginkgo biloba seed protein]”, the IC50 (α-glucosidase [2]; [4]) is listed as 1450 ± 67 µM.

For “YLGYLEQLLR [from Binglangjiang buffalo casein]”, the IC50 (α-glucosidase [2]; [3]) is given as 470 µM.
